Source: patent US20190152962A1, “CYCLOPROPYL DERIVATIVES AS ROR-GAMMA MODULATORS” (CADILA HEALTHCARE LIMITED, priority 2016, published 2019)

Legend:
[1] = molecular target: T1, full length human RORγt (Homo sapiens, UniProt P51449); assay: 5×RORE based luciferase assay; assay type: cell-based; conditions: COS-7 cells transfected with 5×RORE-Luc and hRORγt, 18-20 h treatment
T1 construct: full length human RORγt together in COS-7 cells; expressed in transfected cells; host or cells: COS-7
T1 sequence (P51449 1-497 isoform P51449-2): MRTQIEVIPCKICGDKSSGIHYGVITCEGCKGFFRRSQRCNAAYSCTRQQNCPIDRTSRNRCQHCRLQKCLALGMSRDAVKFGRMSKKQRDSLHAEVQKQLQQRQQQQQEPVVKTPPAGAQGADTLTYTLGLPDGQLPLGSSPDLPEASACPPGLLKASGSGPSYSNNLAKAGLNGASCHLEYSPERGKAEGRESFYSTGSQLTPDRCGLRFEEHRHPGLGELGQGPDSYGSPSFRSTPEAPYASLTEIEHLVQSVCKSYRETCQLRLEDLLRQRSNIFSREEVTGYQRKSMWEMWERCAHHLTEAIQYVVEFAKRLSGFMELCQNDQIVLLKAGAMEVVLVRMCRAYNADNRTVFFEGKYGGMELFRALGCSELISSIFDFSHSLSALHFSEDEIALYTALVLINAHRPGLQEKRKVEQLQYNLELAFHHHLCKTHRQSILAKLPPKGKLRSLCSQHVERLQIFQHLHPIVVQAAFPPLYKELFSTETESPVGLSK
Experimental: Human RORγt (hRORγt) inhibitors were screened in RORE (RORγt Response Element) based Luciferase assay by transient transfection of 5×RORE (5 tandem repeats of RORγt Response Element) and full length human RORγt together in COS-7 cells. COS-7 cells were maintained as monolayer in complete DMEM (High Glucose) medium in presence of 2 mM Glutamin and 1× Sodium Pyruvate. Day before transfection, 15000 cells were seeded in 96 well cell culture plate in 100 μl antibiotic free medium and incubated at 37° C. in 5% CO2 containing humidified chamber O/N. Prior to transfection, cells were fed with fresh complete growth medium and incubated until the addition of transfection complex. Transfection complex for the required numbers of wells were prepared from pGL2-promoter-5×RORE-Luc plasmid, pcDNA3.1 (+)-hRORγt expression plasmid, pβ-GAL plasmid (transfection control), and Lipofectamine 3000 (Invitrogen). 50 μl of transfection complex were added in 100 μl of complete medium to respective wells, mixed gently and plate was incubated for 5-6 h at 37° C. in 5% CO2 containing humidified chamber. After 5 h of transfection, content of the wells were aspirated and cells were treated with increasing concentration of RORγt inverse agonist in medium devoid of serum with a final DMSO concentration of 0.2% for 18-20 h at 37° C. in 5% CO2 containing humidified chamber. Next day, cells were lysed and the lysates were assayed for luciferase and β-GAL activity using Promega's luciferase assay system and an in-house made β-GAL assay buffer respectively. Luciferase signals were normalized with β-GAL and % activity was determined with respect to that of 10 nM control ligand.
IC50 of selected compounds were then determined by nonlinear regression analysis of % activity, plotted against compound concentration (Table 4).

[2] = tested on: secreted IL-17 in peripheral blood mononuclear cells (PBMCs); assay: Human IL-17 inhibition assay; assay type: cell-based; conditions: PBMC, anti-CD3/anti-CD28, 72 h, read-out: IL17 IC50
Experimental: Peripheral blood mononuclear cells (PBMCs) were isolated from healthy volunteers and subjected to T cell polarization assay. Two million PBMCs were placed on anti-CD3 (Biolegend, US) coated 96-well plates and 1 μg/mL of anti-CD28 (Biolegend, US) was added along with RORγt inhibitors or the vehicle control and incubated at 37° C. and 5% CO2 for 72 h. At the end of incubation time, the supernatant was collected and analyzed for secreted IL-17 using sandwich enzyme immunoassay (Mabtech AB, Sweden). The results were analyzed using Graphpad Prism and the half-maximal inhibitory concentrations (IC50) of the test compounds were derived (Table 4).

Row | SMILES | IC50 [1] [nM] | IC50 [2] [nM]
1 | CCS(=O)(=O)c1ccc(CC(=O)Nc2cc(Cl)c(C3(c4noc(C5CC5)n4)CC3)c(Cl)c2)cc1 [Example 25, N-(3,5-dichloro-4-(1-(5-cyclopropyl-1,2,4-oxadiazol-3-yl)cyclopropyl)phenyl)-2-(4-(ethylsulfonyl)phenyl)acetamide] | 1.5 | 14
2 | CCS(=O)(=O)c1ccc(CC(=O)Nc2cc(Cl)c(C3(c4noc(C5CC(F)(F)C5)n4)CC3)c(Cl)c2)cc1 [Example 26, N-(3,5-dichloro-4-(1-(5-(3,3-difluorocyclobutyl)-1,2,4-oxadiazol-3-yl)cyclopropyl)phenyl)-2-(4-(ethylsulfonyl)phenyl)acetamide] | 2.5 | 7.3
3 | CCS(=O)(=O)c1ccc(CC(=O)Nc2cc(Cl)c(C3(c4noc(C5CCOCC5)n4)CC3)c(Cl)c2)cc1 [Example 27, N-(3,5-dichloro-4-(1-(5-(tetrahydro-2H-pyran-4-yl)-1,2,4-oxadiazol-3-yl)cyclopropyl)phenyl)-2-(4-(ethylsulfonyl)phenyl)acetamide] | 13 | 10.8
4 | CCS(=O)(=O)c1ccc(CC(=O)Nc2cc(F)c(C3(c4noc(-c5ccc(F)cc5)n4)CC3)c(F)c2)cc1 [Example 28, N-(3,5-difluoro-4-(1-(5-(4-fluorophenyl)-1,2,4-oxadiazol-3-yl)cyclopropyl)phenyl)-2-(4-(ethylsulfonyl)phenyl)acetamide] | 5.8 | 41.6
5 | CCS(=O)(=O)c1ccc(CC(=O)Nc2cc(F)c(C3(c4noc(-c5ccc(F)cc5)n4)CC3)c(Cl)c2)cc1 [Example 29, N-(3-chloro-5-fluoro-4-(1-(5-(4-fluorophenyl)-1,2,4-oxadiazol-3-yl)cyclopropyl)phenyl)-2-(4-(ethylsulfonyl)phenyl)acetamide] | 19.4 | 19
6 | CCS(=O)(=O)c1ccc(CC(=O)Nc2cc(F)c(C3(c4noc(-c5ccc(C(F)(F)F)cc5)n4)CC3)c(Cl)c2)cc1 [Example 31, N-(3-chloro-5-fluoro-4-(1-(5-(4-(trifluoromethyl)phenyl)-1,2,4-oxadiazol-3-yl)cyclopropyl)phenyl)-2-(4-(ethylsulfonyl)phenyl)acetamide] | 12.6 | 50
7 | CCS(=O)(=O)c1ccc(CC(=O)Nc2cc(F)c(C3(c4noc(-c5ccc(C#N)cc5)n4)CC3)c(Cl)c2)cc1 [Example 32, N-(3-chloro-4-(1-(5-(4-cyanophenyl)-1,2,4-oxadiazol-3-yl)cyclopropyl)-5-fluorophenyl)-2-(4-(ethylsulfonyl)phenyl)acetamide] | 5.96 | 18
8 | CCS(=O)(=O)c1ccc(CC(=O)Nc2cc(C)c(C3(c4noc(-c5ccc(F)cc5)n4)CC3)c(C)c2)cc1 [Example 33, 2-(4-(ethylsulfonyl)phenyl)-N-(4-(1-(5-(4-fluorophenyl)-1,2,4-oxadiazol-3-yl)cyclopropyl)-3,5-dimethylphenyl)acetamide] | 20.2 | 24
9 | CCS(=O)(=O)c1ccc(CC(=O)Nc2cc(Cl)c(C3(c4nc(-c5ccc(F)cc5)no4)CC3)c(Cl)c2)cc1 [Example 35, N-(3,5-dichloro-4-(1-(3-(4-fluorophenyl)-1,2,4-oxadiazol-5-yl)cyclopropyl)phenyl)-2-(4-(ethylsulfonyl)phenyl)acetamide] | 2.3 | 12
10 | CCS(=O)(=O)c1ccc(CC(=O)Nc2cc(Cl)c(C3(c4nc5ccc(F)cc5o4)CC3)c(Cl)c2)cc1 [Example 36, N-(3,5-dichloro-4-(1-(6-fluorobenzo[d]oxazol-2-yl)cyclopropyl)phenyl)-2-(4-(ethylsulfonyl)phenyl)acetamide] | 2.44 | 19
11 | CCS(=O)(=O)c1ccc(CC(=O)Nc2cc(Cl)c(C3(c4ncc(-c5ccc(F)cc5)o4)CC3)c(Cl)c2)cc1 [Example 38, N-(3,5-dichloro-4-(1-(5-(4-fluorophenyl)oxazol-2-yl)cyclopropyl)phenyl)-2-(4-(ethylsulfonyl)phenyl)acetamide] | 1.5 | 23
12 | CCS(=O)(=O)c1ccc(CC(=O)Nc2cc(Cl)c(C3(c4ncc(-c5ccc(Cl)cc5)o4)CC3)c(Cl)c2)cc1 [Example 39, N-(3,5-dichloro-4-(1-(5-(4-chlorophenyl)oxazol-2-yl)cyclopropyl)phenyl)-2-(4-(ethylsulfonyl)phenyl)acetamide] | 22.5 | 22
13 | CCS(=O)(=O)c1ccc(CC(=O)Nc2cc(Cl)c(C3(c4noc(-c5ccc(F)cc5)n4)CC3)c(Cl)c2)nc1 [Example 41, N-(3,5-dichloro-4-(1-(5-(4-fluorophenyl)-1,2,4-oxadiazol-3-yl)cyclopropyl)phenyl)-2-(5-(ethylsulfonyl)pyridin-2-yl)acetamide] | 0.76 | 15.5
14 | CCS(=O)(=O)c1ccc(CC(=O)Nc2cc(Cl)c(C3(c4noc(-c5ccc(F)c(F)c5)n4)CC3)c(Cl)c2)nc1 [Example 44, N-(3,5-dichloro-4-(1-(5-(3,4-difluorophenyl)-1,2,4-oxadiazol-3-yl)cyclopropyl)phenyl)-2-(5-(ethylsulfonyl)pyridin-2-yl)acetamide] | 10.3 | 43
15 | CCS(=O)(=O)c1ccc(CC(=O)Nc2cc(Cl)c(C3(c4noc(-c5ccc(F)cc5Cl)n4)CC3)c(Cl)c2)nc1 [Example 46, N-(3,5-dichloro-4-(1-(5-(2-chloro-4-fluorophenyl)-1,2,4-oxadiazol-3-yl)cyclopropyl)phenyl)-2-(5-(ethylsulfonyl)pyridin-2-yl)acetamide] | 12.9 | 17.1
16 | CCS(=O)(=O)c1ccc(CC(=O)Nc2cc(Cl)c(C3(c4noc(-c5ccc(F)c(Cl)c5)n4)CC3)c(Cl)c2)nc1 [Example 47, N-(3,5-dichloro-4-(1-(5-(3-chloro-4-fluorophenyl)-1,2,4-oxadiazol-3-yl)cyclopropyl)phenyl)-2-(5-(ethylsulfonyl)pyridin-2-yl)acetamide] | 10.1 | 17.9
17 | CCS(=O)(=O)c1ccc(CC(=O)Nc2cc(Cl)c(C3(c4noc(-c5ccc(Cl)c(Cl)c5)n4)CC3)c(Cl)c2)nc1 [Example 48, N-(3,5-dichloro-4-(1-(5-(3,4-dichlorophenyl)-1,2,4-oxadiazol-3-yl)cyclopropyl)phenyl)-2-(5-(ethylsulfonyl)pyridin-2-yl)acetamide] | 10.5 | 38.9
18 | CCS(=O)(=O)c1ccc(CC(=O)Nc2cc(Cl)c(C3(c4noc(-c5ccc(Cl)cc5Cl)n4)CC3)c(Cl)c2)nc1 [Example 49, N-(3,5-dichloro-4-(1-(5-(2,4-dichlorophenyl)-1,2,4-oxadiazol-3-yl)cyclopropyl)phenyl)-2-(5-(ethylsulfonyl)pyridin-2-yl)acetamide] | 4.7 | 17
19 | CCS(=O)(=O)c1ccc(CC(=O)Nc2cc(Cl)c(C3(c4noc(-c5ccc(Cl)cc5)n4)CC3)c(Cl)c2)nc1 [Example 50, N-(3,5-dichloro-4-(1-(5-(4-chlorophenyl)-1,2,4-oxadiazol-3-yl)cyclopropyl)phenyl)-2-(5-(ethylsulfonyl)pyridin-2-yl)acetamide] | 14.5 | 30
20 | CCS(=O)(=O)c1ccc(CC(=O)Nc2cc(Cl)c(C3(c4noc(-c5cccc(Cl)c5)n4)CC3)c(Cl)c2)nc1 [Example 51, N-(3,5-dichloro-4-(1-(5-(3-chlorophenyl)-1,2,4-oxadiazol-3-yl)cyclopropyl)phenyl)-2-(5-(ethylsulfonyl)pyridin-2-yl)acetamide] | 12.1 | 16
